The source of these data is patent publication US20120173160A1, “METHODS AND SYSTEMS FOR QUANTITATIVELY ASSESSING BIOLOGICAL EVENTS USING ENERGY-PAIRED SCORING” (The Trustees of the University of Pennsylvania, priority 2010, published 2012).

“Also recorded” adds a separate entry of the source.

Holding throughout (type): cell-based
One experiment concerns Akt-mTOR pathway. Description: EPS Akt-mTOR pathway score in expression data set of cells treated with 1294 compounds. Particulars: screen of 1294 compounds, strongest negative pathway scores. On the procedure:
A potential application of EPS is to identify inhibitors of a selected pathway by searching for compounds that induce gene expression changes with a strongly negative pathway score. To test EPS's ability to identify small-molecule inhibitors of a pathway from a large library of compounds, an Akt-mTOR pathway signature was developed using gene expression profiles from the prostates of transgenic mice expressing activated Akt that were treated with either the mTOR inhibitor RAD001 or a vehicle control (Majumder et al.). This signature was used to estimate Akt-mTOR pathway activity in a data set derived from three cell lines that had been treated with 1294 different compounds (Lamb et al.). […] In fact, test samples treated with LY-294002 represented 8 of the top 9 samples identified (FIG. 11A).

The test system of experiment [1] is TGFβ pathway. Briefly: Western blot of Smad2 phosphorylation in NMuMG cells treated with TGF-β1. The conditions noted are these: NMuMG cells, 0.15, 0.5, 1.5 or 15 ng/ml, 6 hours. Here is the method: To determine whether EPS could quantitatively estimate signal pathway activity in a biological data set, a genome-wide expression data set was generated to reflect graded increases in TGFβ pathway activation by treating the mammary epithelial cell line, NMuMG, with increasing dosages of TGF-β1 for 6 hours. Signature genes were selected using a p-value of 10^−10 associated with the changes in expression without fold-change cutoff.
(§1) To determine whether EPS could quantitatively estimate dose-dependent increases in TGFβ pathway activity using gene expression data, EPS prediction was compared to biochemical analysis of phospho-Smad2 levels in the same samples. Using a previously published TGFβ signature generated from NMuMG cells treated with TGF-β1 for 24 hours, it was determined whether SVD or EPS could detect pathway activation in NMuMG cells treated with increasing doses of TGF-β1. SVD detected pathway activation only in samples treated with the highest dose of TGFβ (15 ng/ml; FIG. 6B).
For orientation: In western blotting, separated proteins are transferred to a membrane and probed.

Experiment [2] deals with TGFβ pathway. Briefly: EPS estimate of TGFβ pathway activity from gene expression of NMuMG cells treated with TGF-β1. Here is the method:
as §1
As expected from increasing TGFβ effects on mRNA levels over time, EPS predicted higher pathway activity in training set samples treated with TGF-β1 for 24 hours than in test samples treated with TGF-β1 for 6 hours. […] Therefore, a TGFβ signature was generated using NMuMG cells treated with the lowest dose of TGFβ (0.15 ng/ml) for the shortest period of time (6 hrs) as the training set. This signature was then used to test the ability of SVD and EPS to predict pathway activation at different TGFβ doses.

As for `O=c1cc(N2CCOCC2)oc2c(-c3ccccc3)cccc12` [LY-294002], in the experiment on Akt-mTOR pathway, the “test samples treated with the compound among the top 9 samples identified” value stood at 8.

Consider “TGF-β1: TGF-β1 used to treat the mammary epithelial cell line NMuMG”, for which the “TGFβ pathway activity as levels of phosphorylated Smad2” value in the experiment on TGFβ pathway [1] is “dose-dependent increase in TGFβ pathway activity; also recorded: elevated phospho-Smad2 was detected at all doses”. In the experiment with TGFβ pathway [2] (NMuMG cells, 0.5, 1.5 and 15 ng/ml, 6 hours), the “EPS-predicted TGFβ pathway activation, signature from 24 hours treatment” value was “significantly increased pathway activation”. The “EPS-estimated TGFβ pathway activation, signature from 0.15 ng/ml for 6 hrs” value in the experiment on TGFβ pathway [2] (NMuMG cells, increasing doses (0.5, 1.5, 15 ng/ml)) is on record as “progressive increase of TGFβ pathway activation”.
